Test results reported in PMC9694897 (Metabolites, 2022).

Legend:
[1] = tested on: 5-LOX; conditions: read-out: IC50 5-LOX
Procedure: Using an established procedure, the 5-lipoxygenase activity was performed. […] Afterwards, the 5-lipoxygenase solution (10,000 Unit/mL) was prepared. Linoleic acid (80 Mm) was the substrate used for the 5-LOX assay. We also prepared phosphate buffer (50 Mm) with PH 6.3. WE dissolved the various concentrations of the compound in each 0.25 mL of phosphate buffer, then added 0.25 mL of lipoxygenase enzyme to it and incubated it at 25 °C for 5 min. […] We repeated this experiment three times. The standard drug used was Zileuton [36]. By using the following equation, percent inhibition was calculated: Percent inhibition=Absorbance of control−absorbance of sample/Absorbance of control×100

[2] = target: T1, Human recombinant MAO-B (Homo sapiens, UniProt P27338); assay: MAO-B inhibition assay (Amplex Red)
T1 sequence (P27338 1-520): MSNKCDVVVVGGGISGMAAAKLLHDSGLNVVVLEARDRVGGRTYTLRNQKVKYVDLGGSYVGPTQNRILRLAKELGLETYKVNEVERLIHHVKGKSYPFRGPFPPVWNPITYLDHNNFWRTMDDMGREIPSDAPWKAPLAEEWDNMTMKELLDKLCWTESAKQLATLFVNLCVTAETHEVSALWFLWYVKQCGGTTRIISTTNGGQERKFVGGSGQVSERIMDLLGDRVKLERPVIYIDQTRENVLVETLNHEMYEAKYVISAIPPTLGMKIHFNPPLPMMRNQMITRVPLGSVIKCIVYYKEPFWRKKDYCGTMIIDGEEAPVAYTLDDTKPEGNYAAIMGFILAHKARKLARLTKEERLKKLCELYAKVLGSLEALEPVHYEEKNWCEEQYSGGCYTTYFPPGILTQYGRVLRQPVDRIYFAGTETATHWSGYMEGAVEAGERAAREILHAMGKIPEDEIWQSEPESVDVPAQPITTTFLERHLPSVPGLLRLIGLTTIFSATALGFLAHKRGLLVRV
Procedure: Human recombinant MAO-B enzymes used in this assay were obtained from insect cells. The substrate used for MAO-B enzyme is benzylamine hydrochloride. For all the enzymes reactions, as well as for dilutions sodium phosphate buffer (0.05 M), a PH of 7.4 is used. […] The activity of the test compound hMAO-B assay is determined by calculating its effect on H2O2 production from benzylamine while using an Amplex Red MAO assay kit (Invitrogen). In this assay, a volume of 0.1 mL sodium phosphate buffer (0.05 M) with a PH of 7.4, which contains different concentrations of the test compound (reference inhibitors or new compound) and a sufficient quantity of recombinant hMAO-B (0.5 μL, 71 Unit/mg) is incubated at 37 °C for 1 h in a 96-well plate. After incubating, the reaction was initiated by the addition of (final concentration) 200 μM Amplex Red reagent, 1 mM benzylamine hydrochloride and 1 Unit/mL horseradish peroxidase. The H2O2 production, and finally resorufin, was measured in a multi-detection microplate fluorescence reader (TECAN) at 37 °C and with an absorbance of 570 nm. […] Then, specific fluorescence absorbance was determined after subtracting the background activity, measured from the vials which contains all the components except hMAO-B, and was replaced by buffer solution [34].

[3] = target: T2, eqBChE (Equus caballus, UniProt P81908); assay: Anti-cholinesterase assay (DTNB, spectrophotometric), BChE; assay type: biochemical, equine
T2 construct: The butyrylcholinesterase (BChE) is obtained from equine serum; from tissue; host or cells: equine serum
T2 sequence (P81908 whole entry): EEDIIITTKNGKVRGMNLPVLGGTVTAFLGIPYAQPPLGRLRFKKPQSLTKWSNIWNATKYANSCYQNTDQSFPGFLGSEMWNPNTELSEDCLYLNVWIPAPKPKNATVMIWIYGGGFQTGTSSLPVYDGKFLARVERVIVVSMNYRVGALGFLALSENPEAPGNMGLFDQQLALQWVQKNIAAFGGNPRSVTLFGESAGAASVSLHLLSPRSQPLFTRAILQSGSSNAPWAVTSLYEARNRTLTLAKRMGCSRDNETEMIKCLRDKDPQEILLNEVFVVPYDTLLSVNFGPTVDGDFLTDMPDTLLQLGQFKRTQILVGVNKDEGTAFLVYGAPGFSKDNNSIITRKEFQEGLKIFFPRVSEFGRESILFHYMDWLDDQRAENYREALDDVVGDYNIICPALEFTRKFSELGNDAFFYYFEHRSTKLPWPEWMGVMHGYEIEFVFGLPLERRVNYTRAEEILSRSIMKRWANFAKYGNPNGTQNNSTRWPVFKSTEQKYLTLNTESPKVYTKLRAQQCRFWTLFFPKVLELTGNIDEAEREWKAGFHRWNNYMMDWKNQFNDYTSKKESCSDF
From the text: (§1) For the determination of anti-cholinesterase activity of the compounds, the acetylcholinesterase enzymes used were obtained from an electric eel. The butyrylcholinesterase (BChE) is obtained from equine serum. The principle of this assay is based on the hydrolysis of […] by the enzymes AChE and the hydrolysis of butyrylcholine iodide by the enzyme butyrylcholinesterase. This process of hydrolysis yields 5-thio-2-nitrobenzoate anion which then form a complex with DTNB (yellow color) which can be detected by spectrophotometer.
(§2) Then KOH was used for the adjustment of pH.
(§3) In each of these enzyme assays, the enzyme solution (5 μL) was added to the cuvette followed by the addition of the compound (205 μL), and finally DTNB reagents (5 μL) were added. The solution was maintained in a water bath at a temperature of 30 °C for 15 min, and then the substrate solution (5 μL) was added. […] The negative control consists of all the components except the compound. […] The absorbance, as well as the reaction time, were taken for 4 min at a temperature of 30 °C and were repeated in triplicate.

[4] = target: T3, eeAChE (Electrophorus electricus, UniProt O42275); assay: biochemical
T3 construct: the acetylcholinesterase enzymes used were obtained from an electric eel; from tissue; host or cells: electric eel
T3 sequence (O42275 24-633): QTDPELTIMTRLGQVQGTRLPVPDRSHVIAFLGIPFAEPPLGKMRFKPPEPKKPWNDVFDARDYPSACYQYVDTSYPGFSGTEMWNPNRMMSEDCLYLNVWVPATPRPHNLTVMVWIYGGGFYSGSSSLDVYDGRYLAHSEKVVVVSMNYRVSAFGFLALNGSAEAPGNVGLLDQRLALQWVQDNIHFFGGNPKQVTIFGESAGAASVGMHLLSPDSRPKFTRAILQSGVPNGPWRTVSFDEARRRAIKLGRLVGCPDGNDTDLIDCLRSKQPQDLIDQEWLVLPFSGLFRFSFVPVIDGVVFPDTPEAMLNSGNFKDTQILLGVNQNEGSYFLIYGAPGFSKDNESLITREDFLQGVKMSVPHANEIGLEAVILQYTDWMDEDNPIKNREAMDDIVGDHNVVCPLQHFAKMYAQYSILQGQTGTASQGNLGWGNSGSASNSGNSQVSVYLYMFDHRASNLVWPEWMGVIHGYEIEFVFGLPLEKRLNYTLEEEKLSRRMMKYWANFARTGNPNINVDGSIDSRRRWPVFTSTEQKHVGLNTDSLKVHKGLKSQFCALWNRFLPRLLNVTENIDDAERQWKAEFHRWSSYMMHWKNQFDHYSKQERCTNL
From the text: as §1, §2, §3

[5] = Acute toxicity; conditions: mice, 25-2000 mg/kg b. wt, monitored 3 days
From the text: (§4) The Albino mice with an average body weight of 25–30 g were obtained from NIH, Islamabad, Pakistan from our designed studies. The animals were kept in the animal house of the university and were kept under controlled conditions as per the standard guidelines. The animals were used in experiments according to the standard protocols as per the approval of Departmental Ethical Committee with approval letter number DREC-140 [36].

[6] = tested on: carrageenan induced inflammation; assay: In-vivo carrageenan method of inflammation (paw edema); parameters: species or system Albino mice; conditions: flavone 10 mg/kg, aspirin 100 mg/kg
From the text: as §4
The progression of inflammation stimulated by carrageenan is a biphasic system. In the initial phase the serotonin and histamine were released, while in the second phase of swelling prostaglandin, bradykinin, leukotriene and lysozyme were mediated. The non-steroidal and steroidal drugs can wield their function in the second phase of the edema formation.
In the assay, animals were randomly divided into three groups with eight in each group. The first group, Group I, was the negative control and was given dimethyformamide 1% 10 mL/kg bw. […] The third group (Group III) was given 10 mg/kg bw of the isolated flavone. After ½ h, 1% of the saline solution of carrageenan (w/v, 0.05 mL) was given in a sub-planter area of the animals. Afterwards, the paw edema was determined with the help of a plethysmometer (Model LE 7500 plan. Lab SL) with different time intervals. The paw edema of the mice administered with flavone, and with those of the standard drug, were measured at different time intervals. The measurements of paw edema were compared with the mice serving as the negative control group. The percent inhibition activity was calculated as per the standard procedure.

[7] = target: T4, COX-2 (Homo sapiens, UniProt P35354); assay: biochemical
T4 sequence (P35354 18-604): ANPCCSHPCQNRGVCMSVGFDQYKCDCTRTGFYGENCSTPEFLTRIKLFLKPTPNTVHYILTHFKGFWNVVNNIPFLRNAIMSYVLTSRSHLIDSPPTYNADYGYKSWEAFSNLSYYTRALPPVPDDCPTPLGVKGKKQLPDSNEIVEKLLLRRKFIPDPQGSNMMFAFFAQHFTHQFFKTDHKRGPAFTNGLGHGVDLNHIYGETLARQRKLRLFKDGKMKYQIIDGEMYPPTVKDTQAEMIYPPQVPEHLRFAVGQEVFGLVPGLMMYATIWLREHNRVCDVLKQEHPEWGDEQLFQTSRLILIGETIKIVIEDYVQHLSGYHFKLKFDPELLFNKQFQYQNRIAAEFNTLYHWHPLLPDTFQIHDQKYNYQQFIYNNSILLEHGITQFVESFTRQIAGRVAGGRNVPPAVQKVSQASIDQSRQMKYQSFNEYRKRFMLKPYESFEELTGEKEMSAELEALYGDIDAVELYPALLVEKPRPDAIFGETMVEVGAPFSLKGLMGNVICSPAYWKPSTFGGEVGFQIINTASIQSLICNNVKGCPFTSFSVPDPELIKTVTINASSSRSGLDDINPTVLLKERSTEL

[8] = DPPH free radical scavenging assay
Procedure: Free radicals and 1,1-diphenyl, 2-picrylhydrazyl (DPPH) were used for the illustration of the free radical scavenging ability of the molecule. This assay involved the addition of different dilutions (250, 500 and 1000 μg/mL) of this compound to 0.004% methanolic solution of DPPH. […] Ascorbic acid, in this case, was used as a positive control. The percent activity was calculated according to the formula.

[9] = ABTS free radical scavenging assay; conditions: read-out: ABTS IC50
Procedure: To determine the radical scavenging activity of the compound, we added 3.0 mL of ABTS solution to 300 mL of the compound in a cuvette. By spectrophotometer, we measured the absorbance reduction one minute after the mixing of the solution and continued measuring it for 6 min. For positive control, ascorbic acid is used. We then repeated the assay three times and calculated the percent of inhibition according to the formula [35].

[10] = tested on: CCl4-induced oxidative stress markers (SOD, CAT, MDA, TP); assay: In-vivo antioxidant markers in CCl4-induced oxidative stress; parameters: species or system Albino mice; conditions: CCl4 treated mice
From the text: as §4
In this assay, the experimental animals were divided into four groups with five animals in each group. Group I was given the corn oil as a vehicle. The remaining three groups ([…]) were given CCl4 in corn oil in a ratio of 1 to 5 (v/v) for the induction of oxidative stress. The two groups were given 5 and 10 mg/kg bw of the isolated flavone for two weeks. One day after the last administration, the animals were given IM zoletil50 (30 mg/kg bw) with xylazine (5 mg/kg bw) for about 10 min to get anesthetized. Afterwards, the blood sample was taken out by cardiac puncture into EDTA-tubes. After the experiments, the animals were euthanized as per the standard procedure. The blood (200 μL) was centrifuged for 10 min at the rate of 3000 rpm. The plasma was used for the biochemical studies. Afterwards, 0.9% of physiological saline was added to the cellular layer to double up the volume. Again, it was centrifuged under the same set of conditions and the upper layer was discarded. The experiments were repeated three times and erythrocytes were isolated. The isolated erythrocytes were stored at a low temperature (−20 °C). The vital organs like kidneys, liver and heart were harvested, washed and weighted.
The RBCs were employed in a cellular model to evaluate the potency of antioxidants to penetrate into the living cells from plasma.
The superoxide dismutase assay was performed as per the reported procedure. […] The reaction was initiated with the addition of adrenaline (0.3 mM, 0.3 mL) to the buffered mixture. This was mixed immediately and was subjected to a spectrophotometer as a sample cuvette. The solution of buffer (2.5 mL), substrate (0.3 mL) and distilled water (0.2 mL) were added in the reference cuvette. The increase in absorbance (480 nm) was monitored for 2.5 min with 30 sec intervals against a blank. The SOD was calculated as per the reported procedure.
The catalase assay on the isolated compound was performed as per the standard protocols. […] To each of these test tubes, potassium dichromate was added. The tubes were heated for 10 min up to 100 °C. The tubes were then allowed to cool down and optical density was measured at 570 nm. The standard curve of concentration vs. absorbance of H2O2 was plotted. Afterwards, haemolysate (1 mL) was diluted and added to the test tube containing H2O2 (2 mL) and phosphate buffer (2.5 mL, 0.01 M having pH 7.0) and were mixed. After every 30 sec, one ml of solution was withdrawn and was transferred to acidified potassium dichromate (2 mL) for 2 min. This was mixed and heated up to 100 °C for 10 min. The solution was then cooled down and optical density was measured (at 570 nm) against the blank. The catalase activity was calculated as per the standard method.
The lipid peroxidation was performed with malondialdehyde assay as per the reported methods. The diluted haemolysate (0.4 mL, 1:10 v/v) was added to the test tube containing acetic acid sodium hydroxide along with thiobarbituric acid, having a volume of 2 mL each. […] The activity was then calculated as per the standard method.
The total proteins assay of the experiment was performed as per the standard method. The diluted haemolysate (0.2 mL), bovine albumin (0.2 mL, 2 g/dl), distilled water (2 mL) and working reagent 1 mL (CuSO4 with NaK one part and Na2CO3 with NaOH 100 parts) were added in different test tubes. This was mixed and incubated at room temperature for 10 min. […] The absorbance was measured at 570 nm against the blank.

COc1ccc(-c2oc3cc(O)ccc3c(=O)c2O)cc1OC [Isolated flavone, 2-(3,4-dimethoxyphenyl)-3,7-dihydroxy-4H-chromen-4-one]
IC50 [1]: 840 ± 130 nM
IC50 [2]: 140 ± 10 nM
IC50 [3]: 950 ± 40 nM
SI [3]: 1.44
IC50 [4]: 1370 ± 10 nM
safety in animals (acute toxicity) [5]: safe
percent inhibition of paw edema ([6]; fifth h): 45%
percent inhibition of paw edema ([6]; first hour): 45%
percent inhibition of paw edema ([6]; fourth h): 49%
percent inhibition of paw edema ([6]; second hour): 47%
percent inhibition of paw edema ([6]; third h): 42%
IC50 [7]: 380 ± 120 nM
SI (COX-2 selectivity) [7]: 18.70
IC50 [8]: 44300 nM
IC50 [9]: 33400 nM
MDA blood levels ([10]; 5 mg/kg for two weeks): 1.15 ± 0.05 µmol/L
SOD blood levels (second mention) ([10]; 5 mg/kg for two weeks): 0.12 ± 0.02 UL/mg
SOD levels ([10]; 5 mg/kg for two weeks): 8.52 ± 0.51 UL/mg
MDA blood levels ([10]; 10 mg/kg for two weeks): 1.05 ± 0.03 µmol/L
SOD blood levels (second mention) ([10]; 10 mg/kg for two weeks): 0.12 ± 0.32 UL/mg
SOD levels ([10]; 10 mg/kg for two weeks): 9.58 ± 0.41 UL/mg
TP levels ([10]; treated groups versus CCl4 group): significantly changed

C[C@H]1O[C@H](O[C@H]2[C@H](O)[C@@H](O)[C@@H](O[C@H]3[C@H](O)[C@@H](O)C(O)O[C@@H]3CO)O[C@@H]2CO)[C@H](O)[C@@H](O)[C@@H]1N[C@H]1C=C(CO)[C@@H](O)[C@H](O)[C@H]1O (some centres unmarked) [Acarbose, reference compound]
IC50 [8]: 16000 nM
IC50 [9]: 12700 nM

CC(=O)Oc1ccccc1C(=O)O [Aspirin, reference compound]
percent inhibition of paw edema ([6]; fifth h): 57.64%
percent inhibition of paw edema ([6]; first hour): 47.54%
percent inhibition of paw edema ([6]; fourth h): 56.92%
percent inhibition of paw edema ([6]; second hour): 54.63%
percent inhibition of paw edema ([6]; third h): 53.26%
